# Data from PMC9822352, “Design, Synthesis and Evaluation of New Multifunctional Benzothiazoles as Photoprotective, Antioxidant and Antiproliferative Agents” (Molecules, 2022).
# “And” between values parts separate entries of the source, which are not always exact repeats. Identical values can stand only once.
# Tests used:
# [1] = DPPH radical scavenging test; conditions: mean ± SEM; for DPPH (% Inhibition): compound at 1 mg/mL, 30 min, 517 nm
# Method: The DPPH assay is widely used, and the simplest and fastest in vitro method for evaluating the antioxidant power of extracts or isolated compounds; it is based on the depletion of the 2,2-diphenyl-1-picrylhydrazyl radical (DPPH˙) by an antioxidant molecule with scavenger activity. This is an extremely sensitive test that can detect the activity of active ingredients present in very low concentrations.
# The procedure used was adapted from Wang et al.. Briefly, 0.750 mL of a methanolic solution of each tested compound was treated with 1.5 mL of DPPH solution (0.004%) in MeOH. Samples were stored in the dark at room temperature for 30 min, and the absorbance value was read with a spectrophotometer at 517 nm, which is the maximum peak of absorbance relative to the DPPH radical absorption spectra. The values obtained were fitted into Equation (1) and converted to inhibition percentage (%) of the radical:DPPH inhibition percentage (%) = 100 × [1 − A1/A0](1) where A1 and A0 were, respectively, the absorbance recorded with and without the sample, which are directly proportional to DPPH residual concentration in the sample and DPPH concentration in the control (0.750 of MeOH and 1.5 mL of DPPH solution). […] A linear regression was performed to calculate the sample concentration able to eliminate 50% of DPPH free radicals.
# [2] = FRAP (Ferric Reducing Antioxidant Power) assay; conditions: Trolox standard, 37 °C 10 min, 593 nm; mean ± SEM
# Text: The FRAP (Ferric Reducing Antioxidant Power) test allows the measurement of the ability of antioxidants to reduce ferric ion to ferrous. This method represents one of the simplest, quickest and least expensive methods for the determination of reducing properties on oxidized species in vitro.
# The FRAP test (Ferric Reducing Antioxidant Power) is based on a colorimetric reaction and evaluates the ability of a sample of reducing ferric ions to ferrous ion while complexed with TPTZ (2,4,6-trispyridil-s-triazine). The FRAP solution was prepared from 0.1 M acetate buffer (pH 3.6), 10 mmol/L of TPTZ in 40 mM HCl, and 20 mM solution of FeCl3, with a 10:1:1 ratio, as described. Then, 1.9 mL of this solution was incubated with 0.1 mL of the sample solution at 37 °C for 10 min. The absorbance was read with a UV-Vis spectrophotometer at a 593 nm wavelength, relative to the maximum peak of absorbance of Fe^2+-TPTZ complex. Trolox® was used as a standard and the results are expressed as µmolTE/g.
# [3] = UV spectra in solution (MeOH-DMSO): λmax and molar extinction coefficient; assay type: physicochemical; conditions: for ε (molar extinction coefficient): at λmax, Lambert-Beer equation, in M-1 cm-1 (unit assumed); for λmax: solution in MeOH-DMSO, 290–400 nm
# Method: We next investigated the protective potential against UV radiation of each compound. Specifically, in vitro tests were conducted to determine the parameters related to absorption in the UV spectrum and those fundamental to the relative evaluation of the filtering potential and thus candidature as possible UV sunscreen ingredients of the candidates under examination, including λ critical and SPF (sun protection factor). Since the SPF is correlated to the UV quantitative absorption of the substances, the wavelength of maximum absorption (λmax) and the molar extinction coefficient (ε) of the derivatives in solution (MeOH-DMSO) were evaluated (Figures S1 and S2, Supplementary Materials). The UV spectra of the compounds BZTidr1–6 and BZTcin1–5 were recorded in the UVA-UVB range (290–400 nm) to evaluate their profile and compare it to that of the PBSA, a commercial UVB filter that has a λmax of 302 nm. After this peak, the absorbance of PBSA drops, reaching almost zero in the 325 nm range, and thus not providing absorption in the UVA region.
# Once the λmax of each derivative was established, the molar extinction coefficient ε was calculated by applying the Lambert-Beer equation (Table S1, Supplementary Materials): the higher this value, the greater the ability of the compound under examination to absorb UV radiation. […] The excellent values of BZTidr1, BZTidr2 and BZTidr3 are ascribed to the aforementioned hyperchromic shift. In regard to the BZTcin1–5 series, the molar extinction coefficients calculated were very high, and the best values were those of BZTcin1, BZTcin2 and BZTcin3, also attributable to the hyperchromic shift of the absorption spectra. For both series, the excellent absorption capacity of ultraviolet radiation can be traced back to the high π-type conjugation that characterizes them.
# [4] = In vitro filtering parameters of O/W sunscreen formulation containing 3% compound (modified Diffey-Robson, PMMA plates); conditions: 3% in formulation, before irradiation
# Text: All synthesized compounds were formulated at 3% and their photoprotective efficacy, determined by spectrophotometric measurements using the modified Diffey-Robson method, was compared with that of the lead compound PBSA (used at 3% in the same formulation) and using the base without active as a control (Table 2).
# The synthesized compounds were incorporated at a concentration of 3% in a typical oil-in-water sunscreen formulation, to evaluate the filtering parameters, and have the following ingredient composition:
# INCI (International Nomenclature Cosmetic Ingredients): aqua, glycerin, Euxyl PE 9010, xanthan gum, Tribehenin PEG-20 Esters, cetearyl alcohol, dicaprylyl carbonate, PPG-26-Buteth-26 (and) PEG-40 Hydrogenated Castor Oil (and) water, C12-C15 Alkyl Benzoate, and Sodium hydroxide (sol. 10%).
# As previously reported the protocol indicates to spread 32.5 mg of each formulation on 25 cm^2 PMMA plates with the fingers. Each formulation was tested in triplicate, and five measurements were recorded for each dish, following a 15–30 min incubation in the dark at room temperature. UV transmittance data was recorded using a UV-VIS spectrophotometer in the range 290–400 nm. The blank plate, SPF, UVA-PF and critical wavelength were obtained by SPF Calculator software (version 2.1), Shimadzu, Milan, Italy).
# [5] = Photostability study of 3% formulation (post-irradiation filtering parameters); conditions: 3% in formulation, post irradiation
# Text: To outline the efficacy and safety profile of a sunscreen formulation, it is essential to provide data relating to photostability. It is possible to provide photodegradation data by recording, pre- and post-irradiation, the transmittance of PMMA plates with finger-coat formulations subjected to a dose of UVA capable of causing erythema, according to the criteria of Garoli et al.. By means of Equations (2) and (3) it was possible to evaluate the residual percentage of SPF in vitro and of UVA-PF for all the prepared formulations. Of greatest interest are the values obtained for the derivatives BZTcin2 and BZTcin4.
# To determine the photostability, the previously reported method was adopted, which consists in preparing each plate as mentioned above and subjecting it to solar irradiation quantified as the minimum dose of UVA equivalent to an effective radiant exposure of erythema. The protocol stipulates that, before and after exposure to sunlight, the transmission of the sun protection layer in the range of 290–400 nm is recorded.
# Using Equations (2) and (3) below, the residual percentage of SPF in vitro (% SPFeff.) and UVA-PF (% UVA-PFeff.) have been obtained, which, if greater than or equal to 80, can classify a filter as photostable. %SPFeff. = in vitro SPFafter/in vitro SPFbefore × 100(2) %UVA − PFeff. = UVA − PFafter/UVA − PFbefore × 100(3)
# HaCat keratinocytes = test: Cell growth inhibition assay, HaCat; assay type: cell-based, human; conditions: 24 h incubation, cell count
# Method: All synthesized compounds were tested in order to evaluate their in vitro antiproliferative activity. The human melanoma Colo-38 cell line was selected as a tumor skin model, while the immortalized human HaCaT keratinocytes were chosen as a control for the evaluation of the cytotoxicity towards non-cancerous cells and of the selectivity towards tumor cell lines. […] The selectivity index (SI) was also calculated and is the ratio between the IC50 of a given compound towards the non-cancerous cell line and the IC50 of the same compound towards the tumor cell line.
# Cell growth inhibition assays were carried out using human melanoma Colo-38 cells and skin HaCat keratinocytes cells. Human melanoma Colo-38 cells were kindly provided by Dr. Patrizio Giacomini (Laboratory of Immunology, Regina Elena Institute, Rome, Italy). HaCat cells were kindly provided by Istituto Zooprofilattico Sperimentale della Lombardia e dell’Emilia Romagna, Brescia, Italy. Cell lines were seeded using concentrations of 40,000 cells/mL and 25,000 cells/mL, respectively. Colo-38 cells were maintained in RPMI 1640, supplemented with 10% fetal bovine serum (FBS), penicillin (100 Units mL^−1), and streptomycin (100 µg mL^−1). HaCat cells were maintained in DMEM, supplemented with 10% fetal bovine serum (FBS), penicillin (100 Units mL^−1), streptomycin (100 µg mL^−1) and glutamine (2 mM); the incubation was performed at 37 °C in a 5% CO2 atmosphere. Tested compounds were dissolved in MeOH/DMSO (1:1) to obtain 50 mM stock solutions and diluted before cell treatment in MeOH 100%. The tested compounds were added at serial dilutions to the cell cultures (from 0.1 to 100 µM) and incubated for 24 h further. Cells were then harvested, suspended in physiological solution, and counted with a Z2 Coulter Counter (Coulter Electronics, Hialeah, FL, USA). The cell number/mL and the IC50 values were determined when untreated cells were in the log phase of cell growth. Cells treated with vehicles and untreated cells were placed in each plate.
ε (molar extinction coefficient) [3],λmax [3],melting point,DPPH IC50 [1],SMILES,DPPH (% Inhibition) [1],FRAP [2],SPF [4],UVA/UVB [4],UVAPF0 [4],λc [4],SPF [5],UVA/UVB [5],UVAPF [5],λc [5],IC50 (HaCat keratinocytes)
33033.71,317.0 nm,,,"O=C(C=Cc1ccccc1)Nc1nc2ccccc2s1 [BZTcin1, N-(benzo[d]thiazol-2-yl)cinnamamide]",0.51 ± 0.27%,98.69 ± 2.06 µmolTE/g,1.74,0.93,1.38,370 nm,2.33,0.93,1.48,364 nm,
36271.07,334.5 nm,260 to 262 °C,,"COc1ccc(/C=C/C(=O)Nc2nc3ccccc3s2)cc1 [BZTcin3, (E)-N-(benzo[d]thiazol-2-yl)-3-(4-methoxyphenyl)acrylamide]",5.77 ± 0.00%,42.12 ± 1.35 µmolTE/g,1.32,1.07,1.38,384 nm,1.32,1.07,1.36,384 nm,
33223.32,319.4 nm,227 to 230 °C,,"O=C(N/N=C/c1ccccc1)c1nc2ccccc2s1 [BZTidr1, (E)-N′-benzylidenebenzo[d]thiazole-2-carbohydrazide]",10.95 ± 0.12%,282.16 ± 15.03 µmolTE/g,1.48,1.00,1.37,374 nm,1.42,1.00,1.42,372 nm,
23462.08,342.4 nm,,,"COc1ccc(/C=N/NC(=O)c2nc3ccccc3s2)cc1O [BZTidr5, (E)-N′-(3-hydroxy-4-methoxybenzylidene)benzo[d]thiazole-2-carbohydrazide]",44.00 ± 3.56%,1758.16 ± 60.41 µmolTE/g,1.60,1.06,1.58,387 nm,1.60,1.06,1.56,387 nm,
22071.63,344.8 nm,,26.22 ± 1.81 µg/mL,"COc1cc(/C=N/NC(=O)c2nc3ccccc3s2)ccc1O [BZTidr6, (E)-N′-(3-methoxy-4-hydroxybenzylidene)benzo[d]thiazole-2-carbohydrazide]",>90.00%,3826.51 ± 90.60 µmolTE/g,1.24,1.06,1.36,389 nm,1.24,1.06,1.36,389 nm,
,,,5.26 ± 0.41 µg/mL,"O=C(O)/C=C/c1ccc(O)c(O)c1 [Caffeic acid, reference compound]",79.95 ± 0.88%,"10,160.24 ± 21.48 µmolTE/g",,,,,,,,,
,,,,"N.N.[Cl][Pt][Cl] [Cisplatin, reference compound]",,,,,,,,,,,2000 ± 400 nM

SMILES,ε (molar extinction coefficient) [3],λmax [3],melting point,DPPH IC50 [1],DPPH (% Inhibition) [1],FRAP [2],SPF [4],UVA/UVB [4],UVAPF0 [4],λc [4],SPF [5],UVA/UVB [5],UVAPF [5],λc [5],IC50 (HaCat keratinocytes)
"O=S(=O)(O)c1ccc2nc(-c3ccccc3)[nH]c2c1 [PBSA, 2-phenyl-1-H-benzimidazole-5-sulfonic acid, reference compound]",23881.86,302.0 nm and 302 nm,,,<LOQ *,<LOQ *,1.91,0.67,1.13,357 nm,1.98,0.67,1.13,355 nm,
